Results published in article PMC10001067, “Xanthine Oxidase Inhibitory Peptides from Larimichthys polyactis: Characterization and In Vitro/In Silico Evidence” (Foods, 2023).
No end group written: not given here.

Experiments:
[1] = system: XO; details: concentration of 0.25 mg/mL; cited from earlier work
Method: Nongonierma reported that Trp inhibited XO by 70.3 ± 1.1% at a concentration of 0.25 mg/mL. Li claimed that relatively lower IC50 values were mainly located in the peptides containing Trp residue, reporting that the IC50 values of peptides WDD, WDQW, PPKNW, WPPKN, and WSREEQE were lower than those of peptides HCPF and ADIYTE, and that these ...

[2] = molecular target: xanthine oxidase (XO); details: peptide from Skipjack tuna hydrolysates; read-out: XOI activity of IC50; cited from earlier work
Source text: Seven peptides (WDDMEKIW, APPERKYSVW, IADRMQKELT, LNSADLIK, LSNLGIVI, IGALRAVA, and HHTFYNELR) derived from SYC were obtained and their activity values, hemolysis, and toxicity were predicted. Their basic data (AA sequence, MW, PI, predicted activity values, hemolysis, toxicity, and IC50 for XOI activity) are summarized in Table 3. […] Only WW8 and AW10 were predicted to have higher potential physiological activity, and all were non-hemolytic except LSNLGIVI and LNSADLIK. The r ...

[3] = molecular target: T1, xanthine oxidase (XO) (Bos taurus, UniProt P80457); test: XOI activity IC50 in vitro (uric acid formation, absorbance 290 nm); assay type: biochemical, bovine milk; details: for IC50: synthesized peptides, 0.2 M potassium phosphate buffer pH 7.4, XO 0.07 U/mL, xanthine 0.48 mM, 37 °C, absorbance 290 nm, mean ± SD, n = 3, SD; for XOI activity at 15 mg/mL: peptide at 15 mg/mL
T1 construct: xanthine oxidase (X1875-5UN, derived from bovine milk); purchased Solarbio Co., Ltd. (Beijing, China) X1875-5UN; host or cells: bovine milk
T1 sequence (P80457 whole entry): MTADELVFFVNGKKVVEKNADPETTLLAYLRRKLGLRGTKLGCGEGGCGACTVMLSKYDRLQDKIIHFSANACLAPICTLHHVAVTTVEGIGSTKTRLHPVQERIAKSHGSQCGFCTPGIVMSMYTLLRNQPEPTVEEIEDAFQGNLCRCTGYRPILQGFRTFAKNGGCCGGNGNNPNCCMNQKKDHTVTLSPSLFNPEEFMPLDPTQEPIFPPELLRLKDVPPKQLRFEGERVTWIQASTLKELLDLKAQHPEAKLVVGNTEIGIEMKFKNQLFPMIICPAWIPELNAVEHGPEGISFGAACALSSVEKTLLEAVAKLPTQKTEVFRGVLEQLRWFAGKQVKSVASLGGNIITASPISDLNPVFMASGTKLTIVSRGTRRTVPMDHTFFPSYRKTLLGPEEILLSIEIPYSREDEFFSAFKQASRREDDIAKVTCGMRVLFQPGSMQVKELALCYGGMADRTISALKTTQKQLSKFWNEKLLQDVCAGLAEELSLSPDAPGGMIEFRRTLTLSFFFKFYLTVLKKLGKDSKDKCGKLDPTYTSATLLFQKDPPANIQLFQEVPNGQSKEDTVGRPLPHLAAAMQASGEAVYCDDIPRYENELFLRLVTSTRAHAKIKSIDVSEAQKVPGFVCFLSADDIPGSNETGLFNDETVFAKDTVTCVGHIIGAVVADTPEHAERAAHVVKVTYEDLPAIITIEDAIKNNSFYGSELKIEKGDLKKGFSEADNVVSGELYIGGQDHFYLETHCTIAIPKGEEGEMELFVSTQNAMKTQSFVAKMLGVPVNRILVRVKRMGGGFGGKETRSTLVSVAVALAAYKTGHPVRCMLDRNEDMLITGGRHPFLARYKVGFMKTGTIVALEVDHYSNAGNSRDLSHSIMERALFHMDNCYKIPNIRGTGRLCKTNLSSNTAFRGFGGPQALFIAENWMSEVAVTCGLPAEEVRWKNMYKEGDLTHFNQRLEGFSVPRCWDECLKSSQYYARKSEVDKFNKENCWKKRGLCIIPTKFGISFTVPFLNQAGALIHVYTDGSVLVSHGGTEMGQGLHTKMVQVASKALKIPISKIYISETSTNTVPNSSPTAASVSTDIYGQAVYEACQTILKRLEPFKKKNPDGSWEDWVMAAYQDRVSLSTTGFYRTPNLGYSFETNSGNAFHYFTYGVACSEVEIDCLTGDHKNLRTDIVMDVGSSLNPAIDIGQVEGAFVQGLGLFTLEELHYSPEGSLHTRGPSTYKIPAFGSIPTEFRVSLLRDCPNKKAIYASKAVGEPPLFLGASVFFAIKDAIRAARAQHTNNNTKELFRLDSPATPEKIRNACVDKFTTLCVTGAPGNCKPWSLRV
Method: The XOI activity levels of SYCHs were determined and calculated with the methods reported by Liu and Wei with slight modifications. Xanthine was dissolved in 0.2 M potassium phosphate buffer (pH = 7.4) to a concentration of 0.48 mM. In addition, samples (SYCH, UF-1, UF-2, and UF-3) were also dissolved in 0.2 M potassium phosphate buffer (pH = 7.4). Next, 50 μL of sample solution and 50 μL of XO solution (0.07 U/mL) were mixed and incubated at 37 °C for 5 min, then 150 μL of xanthine solution was added to the mixture to continue the reaction. The absorbance of formed uric acid in the samples was monitored at 290 nm with a multifunctional microplate reader (Tecan Co., Ltd., Männedorf, Switzerland). The results were recorded for 10 min. The assay was performed in triplicate. The formula for the calculation of XOI activity is as follows: […]=(dA/dt)blank−(dA/dt)sample/(dA/dt)blank × 100% where (dA/dt)blank and (dA/dt)sample are the reaction rate without and with the test sample inhibitor, respectively. IC50 values were calculated from the mean values of data. XOI activity IC50 (the concentration of active compound required to observe 50% XO inhibition) was determined by plotting the percentage inhibition as a function of concentration of the test compound.

[4] = Dissolution of synthesized peptides in water; assay type: physicochemical

Compound: N[C@@H](Cc1c[nH]c2ccccc12)C(=O)O [Trp]
- Inhibition of XO [1]: 70.3 ± 1.1%

Compound: ACECD [XOI peptide from Skipjack tuna hydrolysates]
- IC50 [2]: 13.4 mM

Compound: APPERKYSVW [APPERKYSVW, Ala-Pro-Pro-Glu-Arg-Lys-Tyr-Ser-Val-Trp]
- IC50 [3]: 5.86 ± 0.02 mM

Compound: HHTFYNELR [peptide derived from SYC]
- Dissolution in water at 3 mg/mL [4]: did not even dissolve in water

Compound: IADRMQKELT [peptide derived from SYC]
- XOI activity at 15 mg/mL [3]: no XOI activity

Compound: IGALRAVA [peptide derived from SYC]
- Dissolution in water at 3 mg/mL [4]: did not even dissolve in water

Compound: LNSADLIK [peptide derived from SYC]
- XOI activity at 15 mg/mL [3]: no XOI activity

Compound: LSNLGIVI [peptide derived from SYC]
- Dissolution in water at 3 mg/mL [4]: did not even dissolve in water

Compound: WDDMEKIW [WDDMEKIW, Trp-Asp-Asp-Met-Glu-Lys-Ile-Trp]
- IC50 [3]: 3.16 ± 0.03 mM
